We go through twelve compounds from ChEMBL document CHEMBL1135306, “Synthesis and evaluation of vancomycin and vancomycin aglycon analogues that bear modifications in the residue 3 asparagine” (2002).

Holding throughout (format): functional
Assay [1] concerns Enterococcus faecium. As to the kind of experiment: In vitro antibacterial activity against vancomycin resistant Enterococcus faecium.
The subject of assay [2] is Enterococcus faecalis. As to the kind of experiment: In vitro antibacterial activity against vancomycin resistant Enterococcus faecalis (VanB, ATCC 51299).
For the next assay, the system named is Staphylococcus aureus. As to the kind of experiment: In vitro antibacterial activity against methicillin sensitive Staphylococcus aureus (ATCC 25923).
In assay [3] the test system is Enterococcus faecalis. Kind of assay: In vitro antibacterial activity against vancomycin resistant Enterococcus faecalis (VanA, BM4166).
For assay [4], the system named is Enterococcus faecium. Kind of assay: In vitro antibacterial activity against Enterococcus faecium (ATCC 35667).

≈ marks a conversion by molar mass, not a printed value.

Turning to `CN[C@H](CC(C)C)C(=O)N[C@H]1C(=O)N[C@@H](CC#N)C(=O)N[C@H]2C(=O)N[C@H]3C(=O)N[C@H](C(=O)N[C@H](C(=O)OC)c4cc(OC)cc(OC)c4-c4cc3ccc4OC)[C@H](O)c3ccc(c(Cl)c3)Oc3cc2cc(c3OC)Oc2ccc(cc2Cl)[C@H]1O`, the MIC amounted to 40 µg/mL (≈ 33.4 µM) in the assay with Enterococcus faecium [1]; 2.5 µg/mL (≈ 2.09 µM) in the assay on Enterococcus faecalis [2]; 0.625 µg/mL (≈ 0.523 µM) with Staphylococcus aureus; 40 µg/mL (≈ 33.4 µM) in the assay on Enterococcus faecalis [3]; 1.25 µg/mL (≈ 1.05 µM) against Enterococcus faecium [4].
As for `CN[C@H](CC(C)C)C(=O)N[C@H]1C(=O)N[C@@H](CC#N)C(=O)N[C@H]2C(=O)N[C@H]3C(=O)N[C@H](C(=O)N[C@H](C(=O)O)c4cc(O)cc(O)c4-c4cc3ccc4O)[C@H](O)c3ccc(c(Cl)c3)Oc3cc2cc(c3O)Oc2ccc(cc2Cl)[C@H]1O`, the MIC against Enterococcus faecium [1] was determined as 640 µg/mL (≈ 568 µM); with Enterococcus faecalis [2], 320 µg/mL (≈ 284 µM); against Staphylococcus aureus, 10 µg/mL (≈ 8.88 µM); in the assay on Enterococcus faecalis [3], 640 µg/mL (≈ 568 µM); in the assay with Enterococcus faecium [4], 20 µg/mL (≈ 17.8 µM).
On to `CN[C@H](CC(C)C)C(=O)N[C@H]1C(=O)N[C@@H](CC(N)=O)C(=O)N[C@H]2C(=O)N[C@H]3C(=O)N[C@H](C(=O)N[C@H](C(=O)O)c4cc(O)cc(O)c4-c4cc3ccc4O)[C@H](O)c3ccc(c(Cl)c3)Oc3cc2cc(c3O)Oc2ccc(cc2Cl)[C@H]1O` [VANCOMYCIN AGLYCON], for which the MIC against Enterococcus faecium [1] came out at 160 µg/mL (≈ 140 µM); against Enterococcus faecalis [2] it was 80 µg/mL (≈ 69.9 µM); against Staphylococcus aureus it was 0.625 µg/mL (≈ 0.546 µM); with Enterococcus faecalis [3] it was 640 µg/mL (≈ 559 µM); with Enterococcus faecium [4], 2.5 µg/mL (≈ 2.19 µM).
Take `CN[C@H](CC(C)C)C(=O)N[C@H]1C(=O)N[C@@H](CC#N)C(=O)N[C@H]2C(=O)N[C@H]3C(=O)N[C@H](C(=O)N[C@H](C(=O)O)c4cc(OC)cc(OC)c4-c4cc3ccc4OC)[C@H](O)c3ccc(c(Cl)c3)Oc3cc2cc(c3OC)Oc2ccc(cc2Cl)[C@H]1O`: the minimal inhibitory concentration (MIC) was 160 µg/mL (≈ 135 µM) against Enterococcus faecium [1]; 20 µg/mL (≈ 16.9 µM) against Enterococcus faecalis [2]; 0.31 µg/mL (≈ 0.262 µM) against Staphylococcus aureus; 160 µg/mL (≈ 135 µM) in the assay with Enterococcus faecalis [3]; 2.5 µg/mL (≈ 2.11 µM) in the assay on Enterococcus faecium [4].
`CN[C@H](CC(C)C)C(=O)N[C@H]1C(=O)N[C@@H](CC(N)=O)C(=O)N[C@H]2C(=O)N[C@H]3C(=O)N[C@H](C(=O)N[C@H](C(=O)O)c4cc(O)cc(O)c4-c4cc3ccc4O)[C@H](O)c3ccc(c(Cl)c3)Oc3cc2cc(c3O[C@@H]2O[C@H](CO)[C@@H](O)[C@H](O)[C@H]2O[C@H]2C[C@](C)(N)[C@H](O)[C@H](C)O2)Oc2ccc(cc2Cl)[C@H]1O` [VANCOMYCIN]: the MIC worked out at 500 µg/mL (≈ 345 µM) against Enterococcus faecium [1]; 125 µg/mL (≈ 86.3 µM) against Enterococcus faecalis [2]; 1.25 µg/mL (≈ 0.863 µM) with Staphylococcus aureus; 2000 µg/mL (≈ 1380 µM) in the assay on Enterococcus faecalis [3]; 2.5 µg/mL (≈ 1.73 µM) against Enterococcus faecium [4].
Taken in the same sequence, the figures for `CN[C@H](CC(C)C)C(=O)N[C@H]1C(=O)N[C@@H](CC#N)C(=O)N[C@H]2C(=O)N[C@H]3C(=O)N[C@H](C(=O)N[C@H](C(=O)OC)c4cc(O)cc(O)c4-c4cc3ccc4O)[C@H](O)c3ccc(c(Cl)c3)Oc3cc2cc(c3O)Oc2ccc(cc2Cl)[C@H]1O` were 320 µg/mL (≈ 281 µM), 320 µg/mL (≈ 281 µM), 1.25 µg/mL (≈ 1.1 µM), 320 µg/mL (≈ 281 µM) and 5 µg/mL (≈ 4.39 µM).
For the compound `CN[C@H](CC(C)C)C(=O)N[C@H]1C(=O)N[C@@H](CC(N)=O)C(=O)N[C@H]2C(=O)N[C@H]3C(=O)N[C@H](C(=O)N[C@H](C(=O)OC)c4cc(OC)cc(OC)c4-c4cc3ccc4OC)[C@H](O)c3ccc(c(Cl)c3)Oc3cc2cc(c3OC)Oc2ccc(cc2Cl)[C@H]1O`, the minimum inhibitory concentration (MIC) against Enterococcus faecium [1] was found to be 40 µg/mL (≈ 32.9 µM); with Enterococcus faecalis [2] it was 10 µg/mL (≈ 8.24 µM); with Staphylococcus aureus, 0.625 µg/mL (≈ 0.515 µM); in the assay on Enterococcus faecalis [3], 40 µg/mL (≈ 32.9 µM); with Enterococcus faecium [4], 1.25 µg/mL (≈ 1.03 µM).
For `CN[C@H](CC(C)C)C(=O)N[C@H]1C(=O)N[C@@H](CC#N)C(=O)N[C@H]2C(=O)N[C@H]3C(=O)N[C@H](C(=O)N[C@H](C(=O)OC)c4cc(O)cc(O)c4-c4cc3ccc4O)[C@H](O)c3ccc(c(Cl)c3)Oc3cc2cc(c3O[C@@H]2O[C@H](CO)[C@@H](O)[C@H](O)[C@H]2O[C@H]2C[C@](C)(N)[C@H](O)[C@H](C)O2)Oc2ccc(cc2Cl)[C@H]1O`, the MIC against Enterococcus faecium [1] is 320 µg/mL (≈ 221 µM); in the assay with Enterococcus faecalis [2] it was 160 µg/mL (≈ 111 µM); with Staphylococcus aureus, 2.5 µg/mL (≈ 1.73 µM); in the assay with Enterococcus faecalis [3], 640 µg/mL (≈ 443 µM); in the assay with Enterococcus faecium [4], 10 µg/mL (≈ 6.92 µM).
Regarding `CN[C@H](CC(C)C)C(=O)N[C@H]1C(=O)N[C@@H](CC(N)=O)C(=O)N[C@H]2C(=O)N[C@H]3C(=O)N[C@H](C(=O)N[C@H](C(=O)OC)c4cc(O)cc(O)c4-c4cc3ccc4O)[C@H](O)c3ccc(c(Cl)c3)Oc3cc2cc(c3O[C@@H]2O[C@H](CO)[C@@H](O)[C@H](O)[C@H]2O[C@H]2C[C@](C)(N)[C@H](O)[C@H](C)O2)Oc2ccc(cc2Cl)[C@H]1O`, the MIC against Enterococcus faecium [1] worked out at 640 µg/mL (≈ 437 µM); with Enterococcus faecalis [2], 80 µg/mL (≈ 54.7 µM); in the assay with Staphylococcus aureus, 2.5 µg/mL (≈ 1.71 µM); with Enterococcus faecalis [3] it was 640 µg/mL (≈ 437 µM); against Enterococcus faecium [4], 2.5 µg/mL (≈ 1.71 µM).
Consider `CN[C@H](CC(C)C)C(=O)N[C@H]1C(=O)N[C@@H](CC(N)=O)C(=O)N[C@H]2C(=O)N[C@H]3C(=O)N[C@H](C(=O)N[C@H](C(=O)OC)c4cc(O)cc(O)c4-c4cc3ccc4O)[C@H](O)c3ccc(c(Cl)c3)Oc3cc2cc(c3O)Oc2ccc(cc2Cl)[C@H]1O`, for which the MIC amounted to 320 µg/mL (≈ 276 µM) with Enterococcus faecium [1]; 320 µg/mL (≈ 276 µM) in the assay on Enterococcus faecalis [2]; 5 µg/mL (≈ 4.32 µM) in the assay with Staphylococcus aureus; 640 µg/mL (≈ 553 µM) with Enterococcus faecalis [3]; 10 µg/mL (≈ 8.64 µM) against Enterococcus faecium [4].
For the compound `CN[C@H](CC(C)C)C(=O)N[C@H]1C(=O)N[C@@H](CC#N)C(=O)N[C@H]2C(=O)N[C@H]3C(=O)N[C@H](C(=O)N[C@H](C(=O)O)c4cc(O)cc(O)c4-c4cc3ccc4O)[C@H](O)c3ccc(c(Cl)c3)Oc3cc2cc(c3O[C@@H]2O[C@H](CO)[C@@H](O)[C@H](O)[C@H]2O[C@H]2C[C@](C)(N)[C@H](O)[C@H](C)O2)Oc2ccc(cc2Cl)[C@H]1O`, the MIC was determined as 320 µg/mL (≈ 224 µM) against Enterococcus faecium [1]; 320 µg/mL (≈ 224 µM) in the assay on Enterococcus faecalis [2]; 20 µg/mL (≈ 14 µM) in the assay on Staphylococcus aureus; 320 µg/mL (≈ 224 µM) against Enterococcus faecalis [3]; 80 µg/mL (≈ 55.9 µM) against Enterococcus faecium [4].
With `CN[C@H](CC(C)C)C(=O)N[C@H]1C(=O)N[C@@H](CC(N)=O)C(=O)N[C@H]2C(=O)N[C@H]3C(=O)N[C@H](C(=O)N[C@H](C(=O)O)c4cc(OC)cc(OC)c4-c4cc3ccc4OC)[C@H](O)c3ccc(c(Cl)c3)Oc3cc2cc(c3OC)Oc2ccc(cc2Cl)[C@H]1O`, the minimal inhibitory concentration (MIC) was found to be 40 µg/mL (≈ 33.3 µM) in the assay with Enterococcus faecium [1]; 20 µg/mL (≈ 16.7 µM) against Enterococcus faecalis [2]; 0.625 µg/mL (≈ 0.521 µM) in the assay on Staphylococcus aureus; 40 µg/mL (≈ 33.3 µM) with Enterococcus faecalis [3]; 2.5 µg/mL (≈ 2.08 µM) in the assay on Enterococcus faecium [4].
